Our source for the Ki values is patent publication US20040142933A1, “Oxindole substituted piperazine derivatives” (priority 2002, published 2004).

One experiment deals with T1, dopamine D2 receptor (Homo sapiens, UniProt P14416).
T1 construct: expressed in transfected cells; host or cells: CHO cells (CHO-hD2L)
Kind of experiment: Dopamine D2 receptor binding, [3H]spiperone, CHO-hD2L cell membranes. The following applies: [3H]spiperone 0.4 nM. From the text:
(§1) The ability of the compounds of this invention to bind to the dopamine D2 and serotonin 2A (5HT2A) receptors can be determined using conventional radioligand receptor binding assays. All receptors can be heterologously expressed in cell lines and experiments conducted in membrane preparations from the cell lines using procedures outlined below. IC50 concentrations can be determined by nonlinear regression of concentration-dependent reduction in specific binding. The Cheng-Prussoff equation can be used to convert the IC50 to Ki concentrations.
Dopamine D2 Receptor Binding:
[^3H]Spiperone binding to a membrane preparation from CHO-hD2L cells is carried out in 250 μl of 50 mM Tris-HCl buffer containing 100 mM NaCl, 1 mM MgCl2 and 1% DMSO at pH 7.4. Duplicate samples containing (in order of addition) the test compounds, 0.4 nM [^3H]spiperone and approximately 12 μg protein are incubated for 120 minutes at room temperature. Bound radioligand is separated by rapid filtration under reduced pressure through Whatman GF/B glass fiber filters previously treated with 0.3% polyethyleneimine. Radioactivity retained on the filter is determined by liquid scintillation spectrophotometry.
The title compounds of Examples 1-14 were tested using the above assay, in which specific binding determined in the presence of 1 mM haloperidol was 95%.

Experiment [1] deals with T2, serotonin 2A (5HT2A) receptor (Homo sapiens, UniProt P28223).
T2 construct: expressed in transfected cells; host or cells: Swiss cells (Swiss-h5HT2A)
T2 sequence (P28223 whole entry): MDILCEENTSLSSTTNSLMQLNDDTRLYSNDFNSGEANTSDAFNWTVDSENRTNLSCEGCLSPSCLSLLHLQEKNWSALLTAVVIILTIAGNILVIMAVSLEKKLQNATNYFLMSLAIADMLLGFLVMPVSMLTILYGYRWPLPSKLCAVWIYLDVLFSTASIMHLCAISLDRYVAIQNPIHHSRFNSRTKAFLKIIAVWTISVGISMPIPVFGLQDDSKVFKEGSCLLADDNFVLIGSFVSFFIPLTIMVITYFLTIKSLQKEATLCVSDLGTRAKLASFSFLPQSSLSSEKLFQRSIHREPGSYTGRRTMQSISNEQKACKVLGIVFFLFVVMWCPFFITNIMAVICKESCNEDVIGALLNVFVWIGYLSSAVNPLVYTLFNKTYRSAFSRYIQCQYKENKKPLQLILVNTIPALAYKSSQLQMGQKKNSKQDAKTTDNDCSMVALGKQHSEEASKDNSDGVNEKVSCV
Kind of experiment: Serotonin 2A binding, [3H]ketanserin, Swiss-h5HT2A cell membranes. The conditions noted are these: [3H]ketanserin 1.0 nM.
Description: as §1
[^3H] Ketanserin binding to Swiss-h5HT2A cell membranes can be carried out in 250 μl of 50 mM Tris-HCl buffer pH 7.4. Duplicate samples containing (in order of addition) test compounds, 1.0 nM [^3H]ketanserin, and approximately 75 μg protein are incubated for 120 minutes at room temperature. Bound radioligand is separated by rapid filtration under reduced pressure through Whatman GF/B glass fiber filters previously treated with 0.3% polyethyleneimine. Radioactivity retained on the filter is determined by liquid scintillation spectrophotometry.
The title compounds of Examples 1-14 were tested using the above assay, in which specific binding determined in the presence of 1 mM ketanserin was 90%.

T1 sequence (P14416 whole entry): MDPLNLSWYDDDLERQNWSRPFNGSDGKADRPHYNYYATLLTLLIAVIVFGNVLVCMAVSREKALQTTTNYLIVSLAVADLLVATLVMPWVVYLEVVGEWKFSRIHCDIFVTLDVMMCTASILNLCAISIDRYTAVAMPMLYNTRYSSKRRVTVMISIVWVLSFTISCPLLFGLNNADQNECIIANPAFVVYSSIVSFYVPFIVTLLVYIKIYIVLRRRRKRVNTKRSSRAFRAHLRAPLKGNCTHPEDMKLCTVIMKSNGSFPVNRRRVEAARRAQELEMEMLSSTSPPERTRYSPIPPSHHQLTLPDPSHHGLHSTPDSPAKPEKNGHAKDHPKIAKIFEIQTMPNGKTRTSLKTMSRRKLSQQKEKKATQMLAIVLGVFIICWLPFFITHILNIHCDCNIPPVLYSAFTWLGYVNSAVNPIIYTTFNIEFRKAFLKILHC

With `CC(C)=C1C(=O)N(C)c2ccc(CCN3CCN(c4nsc5ccccc45)CC3)cc21` [Example 1, 5-[2-(4-1,2-benzisothiazol-3-yl-piperazin-1-yl)-ethyl]-3-isopropylidene-1-methyl-1,3-dihydro-indol-2-one], the figures for the inhibitory constant (Ki) (at dopamine D2 receptor; in experiment [1]) were 14.7 nM and 0.75 nM, respectively.
On dopamine D2 receptor, `CC(C)=C1C(=O)Nc2ccc(CCCN3CCN(c4noc5ccccc45)CC3)cc21` [Example 4, 5-[3-(4-1,2-Benzisoxazol-3-yl-piperazin-1-yl)-propyl]-3-isopropylidene-1,3-dihydro-indol-2-one] came in with a Ki of 49.4 nM.
With `CC1(C)CC12C(=O)Nc1cc(Cl)c(CCCN3CCN(c4nsc5ccccc45)CC3)cc12` (stereo not drawn) [Example 14, Spiro[cyclopropane-1,3′-{3H}indol]-2′(1′H)-one,5′-[3-[4-{1,2-benzisothiazol-3-yl}-1-piperazinyl]propyl]-6′-chloro-2,2-dimethyl—], the affinity in experiment [1], expressed as Ki, was 7.45 nM.
As for `CC(C)=C1C(=O)Nc2cc(Cl)c(CCN3CCN(c4nsc5ccccc45)CC3)cc21` [Example 5, 5-[2-(4-1,2-benzisothiazol-3-yl-piperazin-1-yl)-ethyl]-6-chloro-3-isopropylidene-1,3-dihydro-indol-2-one], the Ki amounted to 1.3 nM on dopamine D2 receptor and 8.4 nM in experiment [1].
